How the values were obtained:
SARS-CoV PLP = SARS-CoV PLP (Severe acute respiratory syndrome coronavirus, UniProt P0C6X7); details: cited from earlier work
3CLPro/Mpro of SARS-CoV = 3CLPro/Mpro of SARS-CoV (Severe acute respiratory syndrome coronavirus, UniProt P0C6X7); details: cited from earlier work
SARS-CoV N protein = SARS-CoV N protein (Severe acute respiratory syndrome coronavirus, UniProt P59595); details: cited from earlier work
[1] = biological target: 3CLpro from the first SARS-CoV (Severe acute respiratory syndrome coronavirus, UniProt P0C6X7); details: cited from earlier work
PLP of SARS-CoV-2 = PLP of SARS-CoV-2 (Severe acute respiratory syndrome coronavirus 2, UniProt P0DTD1); details: cited from earlier work
[2] = tested on: SARS-CoV-2 pseudotyped lentiviral vectors; details: blocked entry of pseudotyped lentiviral vectors; cited from earlier work
[3] = tested on: SARS-CoV-2 replicating virus in Vero cells; details: virus replication; cited from earlier work
SARS-CoV-2 strain = details: plaque reduction neutralization test; read-out: PRNT50; cited from earlier work
[4] = tested on: peripheral blood mononuclear cells (PBMC); assay: MTT cytotoxicity assay in PBMCs; details: different concentrations, 24 h (FIG. 17)
common cold = details: after 7 days of treatment, 23 mg; placebo 46%; cited from earlier work

Sequence of SARS-CoV N protein (P59595 whole entry, looked up): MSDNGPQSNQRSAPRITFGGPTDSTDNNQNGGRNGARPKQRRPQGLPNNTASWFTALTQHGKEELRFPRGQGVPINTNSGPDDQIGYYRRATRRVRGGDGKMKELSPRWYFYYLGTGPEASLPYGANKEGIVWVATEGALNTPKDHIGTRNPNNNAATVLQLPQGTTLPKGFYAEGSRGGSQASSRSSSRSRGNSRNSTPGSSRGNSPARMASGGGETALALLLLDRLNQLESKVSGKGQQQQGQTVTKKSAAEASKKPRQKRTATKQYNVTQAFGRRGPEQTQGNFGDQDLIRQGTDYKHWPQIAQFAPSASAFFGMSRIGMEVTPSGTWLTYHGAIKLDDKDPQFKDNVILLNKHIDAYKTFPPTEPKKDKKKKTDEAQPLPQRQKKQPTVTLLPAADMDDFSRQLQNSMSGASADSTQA

In the case of `[Ca+2]` [Ca], the “effects on the activity of PLP” value (SARS-CoV PLP) is given as “no effects”.
In the case of `[Co+2]` [Co], the “effects on the activity of PLP” value (SARS-CoV PLP) is listed as “no effects”.
In the case of `[Mg]` [Mg], the “effects on the activity of PLP” value (SARS-CoV PLP) is given as “no effects”.
In the case of `[Mn]` [Mn], the “effects on the activity of PLP” value (SARS-CoV PLP) is listed as “no effects”.
In the case of `[Ni]` [Ni], the “effects on the activity of PLP” value (SARS-CoV PLP) is listed as “no effects”.
In the case of `[Zn+2]` [Zn^2+], the IC50 (SARS-CoV PLP) is given as 1300 nM and the Ki (3CLPro/Mpro of SARS-CoV) is given as 1100 nM.
For (−)-gallocatechin gallate, the IC50 (SARS-CoV N protein) is given as 0.05 µg/mL.
For Epigallocatechin-3-gallate [EGCG], the IC50 [1] is listed as 73000 nM, the “inhibition of the recombinant 3CLpro/Mpro” value [1] is listed as “over 85%” and the “binding affinity to PLP core structure” value (PLP of SARS-CoV-2) is listed as “highest binding affinity”. For the same compound, the IC50 [2] was 2.47 µg/mL, the IC50 [3] was 1.73 µg/mL and the EC50 (SARS-CoV-2 strain) was 200 nM. For the same compound, the cell viability [4] was “a decrease in viability”.
In the case of N-ethyl-N-phenyl-dithio-carbamate-Zinc, the IC50 (SARS-CoV PLP) is listed as 3300 nM.
In the case of Zinc gluconate, the subjects asymptomatic (common cold) is given as 86%.
